Test system: human subjects
Experiment: Phase 1 study of safety, tolerability and pharmacokinetics in healthy volunteers (Example 1)
Assay type: in vivo
Settings: Phase 1 study participants
Source text: The study is a first in-human study of ATN-10155 is designed to assess the safety, tolerability, and pharmacokinetics of ATN-10155 following administration of two phases: a single ascending dose phase and multiple ascending dose phase. The study is a randomized, double-blind study with participants in each cohort receiving active drug or matching placebo. The study evaluates the safety, tolerability, and pharmacokinetics of ATN-10155 following the single and multiple dose phases in healthy volunteers. […]
Single Ascending Dose—the Single Ascending Dose portion comprises five or more cohorts with eight participants in each cohort, 6 actively receiving ATN-10155 and 2 receiving a placebo. […] Sentinel dosing is not employed once the maximum tolerated dose is determined or if an intermediate cohort is added that that is lower than the dose of the previous cohort. […]
Safety and tolerability—A physical and neurological exam is done as part of the eligibility evaluation at screening. […] Systolic blood pressure, diastolic blood pressure, pulse, and peripheral arterial oxygen saturation (pulse oximetry) is recorded prior to every PK blood sample (including pre-dose) in the single ascending dose portion. […] If a post-menopausal female, follicle stimulating hormone levels is measured at screening. […]

## C[C@@]1(O)CC[C@@]2(C)[C@@H](CC[C@@H]3[C@@H]2CC[C@]2(C)[C@@H](C(=O)Cn4cc(C#N)cn4)CC[C@@H]32)C1 [CV-10155, 1-[2-[(3R,5S,8R,9S,10S,13S,14S,17S)-3-hydroxy-3,10,13-trimethyl-1,2,4,5,6,7,8,9,11,12,14,15,16,17-tetradecahydrocyclopenta[a]phenanthren-17-yl]-2-oxoethyl]pyrazole-4-carbonitrile]
  serious adverse events: minimal to no serious adverse events
  severe adverse events: minimal to no severe adverse events

From patent US20230372364A1, “METHOD OF TREATING GABA MEDIATED DISORDERS” (Eliem Therapeutics (UK) Ltd, priority 2020, published 2023)
